Experimental data from US20210292807A1, “METHOD FOR TESTING ANTIMICROBIAL SUSCEPTIBILITY” (priority 2017, published 2021).
Where “and” joins values, the source holds several entries; their conditions need not be identical. Equal entries are not always repeated.

Test system: Klebsiella isolates
Test: Broth microdilution MIC (MICBMD) of Klebsiella isolates
Type: cell-based, Klebsiella pneumoniae, Klebsiella oxytoca
Protocol: An aliquot of bacterial suspension was added to 50 mL centrifuge tubes (Corning, N.Y.) containing 9 mL of pre-warmed (37° C.) filtered MHB to produce a final density of 5×10^5-1×10^6 bacteria per mL. This suspension was incubated at 37° C. with shaking at 100 RPM for 30 minutes to obtain an actively dividing culture. An aliquot of antibiotic working solution from the previously described dilution series (appropriate to the concentration tested) was then added to each tube before a further 30-minute incubation with shaking, during which time a microbroth dilution (MBD) plate was prepared for overnight incubation at 37° C. as previously described in Clinical and Laboratory Standards Institute (2015) Performance Standards for Antimicrobial Susceptibility Testing: Informational Supplement. CLSI document M100-S25. Clinical and Laboratory Standards Institute, 950, West Valley Road, Suite 2500, Wayne, Pa., 19087, USA.
FIG. 2 outlines the work flow as exemplified herein. In brief, an isolate was retrieved from cryopreservation, plated onto blood agar to ensure purity, and inoculated into trypticase soy broth (TSB, described above) overnight to simulate biological fluids. A 1 mL aliquot of this overnight suspension was inoculated into Mueller-Hinton broth (MHB) [comprising about 300.0 g beef extract (dehydrated infusion from), about 17.5 g casein hydrolysate, about 1.5 g starch, reconstituted in about 1 L of water, pH 7.3±0.1 as measured and kept at 25° C.] and incubated at 37° C. to ensure bacteria were actively dividing. One aliquot was subjected to traditional microbroth dilution (MBD) susceptibility testing.

[1] = K. pneumoniae isolate 18397, biological replicates
[2] = K. pneumoniae isolate 43292, biological replicates
[3] = K. pneumoniae isolate 43358, biological replicates
[4] = K. pneumoniae isolate 44271, biological replicates
[5] = K. pneumoniae isolate ATCC 700603, biological replicates
[6] = K. pneumoniae isolate ATCC BAA1705, biological replicates
[7] = K. pneumoniae isolate K1, biological replicates
[8] = K. pneumoniae isolate K14, biological replicates
[9] = isolate 3000770, England, NDM-1
[10] = isolate 3040820, England, pAmpC
[11] = isolate ATCC BAA 1705, USA, KPC
[12] = isolate K16, Australia, IMP - 4
[13] = isolate K23, Australia, IMP - 4
[14] = isolate KS1, Sri Lanka, OXA-181
[15] = isolate KS17, Sri Lanka, OXA-181

## C[C@@H](O)[C@H]1C(=O)N2C(C(=O)O)=C(S[C@@H]3CN[C@H](C(=O)N(C)C)C3)[C@H](C)[C@H]12 [meropenem]
K. pneumoniae ATCC 700603 (carbapenem susceptible control), limited clinical screen concentrations
  MICBMD: ≤0.25
K. pneumoniae ATCC BAA1705 (carbapenem resistant control), limited clinical screen concentrations
  MICBMD: >16
[1]
  BMD S/NS: S (S: MIC ≤2 mg/L)
  MICBMD: ≤0.25 mg/L
[2]
  BMD S/NS: S (S: MIC ≤2 mg/L)
  MICBMD: ≤0.25 mg/L
[3]
  BMD S/NS: S (S: MIC ≤2 mg/L)
  MICBMD: ≤0.25 mg/L
[4]
  BMD S/NS: S (S: MIC ≤2 mg/L)
  MICBMD: 0.5 mg/L
[5]
  BMD S/NS: S (S: MIC ≤2 mg/L)
  MICBMD: ≤0.25 mg/L
[6]
  BMD S/NS: NS (NS: MIC >2 mg/L)
  MICBMD: 16 mg/L
[7]
  BMD S/NS: NS (NS: MIC >2 mg/L)
  MICBMD: 32 mg/L (2×) and 64 mg/L
[8]
  BMD S/NS: NS (NS: MIC >2 mg/L)
  MICBMD: 256 mg/L
K. pneumoniae isolate KS1, biological replicates
  MICBMD: 4 mg/L and 2 mg/L (2×)
K. pneumoniae isolate KS11, biological replicates
  MICBMD: 2 mg/L and 4 mg/L (2×)
Isolate 194, Sweden, VIM
  MBD S/NS: NS (NS = MIC >2 mg/L)
  MICBMD: 64 mg/L
Isolate 374, Sweden, VIM
  MBD S/NS: NS (NS = MIC >2 mg/L)
  MICBMD: 8 mg/L
Isolate 3354, Australia
  MBD S/NS: S (S = MIC ≤2 mg/L)
  MICBMD: ≤0.25 mg/L
Isolate 10924, Sweden, KPC
  MBD S/NS: S (S = MIC ≤2 mg/L)
  MICBMD: ≤0.25 mg/L
Isolate 18397, Australia
  MBD S/NS: S (S = MIC ≤2 mg/L)
  MICBMD: ≤0.25 mg/L
Isolate 43288, Australia
  MBD S/NS: S (S = MIC ≤2 mg/L)
  MICBMD: ≤0.25 mg/L
Isolate 43292, Australia
  MBD S/NS: S (S = MIC ≤2 mg/L)
  MICBMD: ≤0.25 mg/L
Isolate 43358, Australia
  MBD S/NS: S (S = MIC ≤2 mg/L)
  MICBMD: ≤0.25 mg/L
Isolate 43854, Australia
  MBD S/NS: S (S = MIC ≤2 mg/L)
  MICBMD: ≤0.25 mg/L
Isolate 44271, Australia
  MBD S/NS: S (S = MIC ≤2 mg/L)
  MICBMD: 0.5 mg/L
Isolate 51575, Sweden, ESBL
  MBD S/NS: S (S = MIC ≤2 mg/L)
  MICBMD: ≤0.25 mg/L
Isolate 70708, Sweden, KPC
  MBD S/NS: NS (NS = MIC >2 mg/L)
  MICBMD: 32 mg/L
Isolate 71076, Sweden, KPC
  MBD S/NS: NS (NS = MIC >2 mg/L)
  MICBMD: 32 mg/L
Isolate 200822, Sweden, KPC
  MBD S/NS: NS (NS = MIC >2 mg/L)
  MICBMD: 16 mg/L
Isolate 270902, England
  MBD S/NS: S (S = MIC ≤2 mg/L)
  MICBMD: 0.5 mg/L
Isolate 500638, Sweden, pAmpC
  MBD S/NS: NS (NS = MIC >2 mg/L)
  MICBMD: 4 mg/L
Isolate 515870, Sweden, ESBL
  MBD S/NS: S (S = MIC ≤2 mg/L)
  MICBMD: ≤0.25 mg/L
Isolate 2440606, England
  MBD S/NS: S (S = MIC ≤2 mg/L)
  MICBMD: ≤0.25 mg/L
Isolate 2880622, England
  MBD S/NS: S (S = MIC ≤2 mg/L)
  MICBMD: ≤0.25 mg/L
Isolate 2880654, England, KPC
  MBD S/NS: NS (NS = MIC >2 mg/L)
  MICBMD: 64 mg/L
Isolate 2890369, England
  MBD S/NS: S (S = MIC ≤2 mg/L)
  MICBMD: ≤0.25 mg/L
Isolate 2980639, England
  MBD S/NS: S (S = MIC ≤2 mg/L)
  MICBMD: ≤0.25 mg/L
[9]
  MBD S/NS: NS (NS = MIC >2 mg/L)
  MICBMD: 32 mg/L
[10]
  MBD S/NS: S (S = MIC ≤2 mg/L)
  MICBMD: 0.5 mg/L
Isolate 3080800, England, KPC
  MBD S/NS: NS (NS = MIC >2 mg/L)
  MICBMD: 256 mg/L
Isolate A1, Norway
  MBD S/NS: S (S = MIC ≤2 mg/L)
  MICBMD: ≤0.25 mg/L
Isolate A2, Norway
  MBD S/NS: S (S = MIC ≤2 mg/L)
  MICBMD: ≤0.25 mg/L
Isolate A3, Norway
  MBD S/NS: S (S = MIC ≤2 mg/L)
  MICBMD: ≤0.25 mg/L
Isolate A4, Norway
  MBD S/NS: S (S = MIC ≤2 mg/L)
  MICBMD: ≤0.25 mg/L
Isolate A7, Norway
  MBD S/NS: S (S = MIC ≤2 mg/L)
  MICBMD: ≤0.25 mg/L
Isolate A13, Norway
  MBD S/NS: S (S = MIC ≤2 mg/L)
  MICBMD: ≤0.25 mg/L
Isolate A15, Norway
  MBD S/NS: S (S = MIC ≤2 mg/L)
  MICBMD: ≤0.25 mg/L
Isolate A16, Norway
  MBD S/NS: S (S = MIC ≤2 mg/L)
  MICBMD: ≤0.25 mg/L
Isolate A20, Norway, NDM-1
  MBD S/NS: NS (NS = MIC >2 mg/L)
  MICBMD: 16 mg/L
Isolate ATCC 700603, USA
  MBD S/NS: S (S = MIC ≤2 mg/L)
  MICBMD: ≤0.25 mg/L
[11]
  MBD S/NS: NS (NS = MIC >2 mg/L)
  MICBMD: 16 mg/L
Isolate ATCC BAA 1706, USA
  MBD S/NS: S (S = MIC ≤2 mg/L)
  MICBMD: ≤0.25 mg/L
Isolate K1, Australia, OXA-181
  MBD S/NS: NS (NS = MIC >2 mg/L)
  MICBMD: 64 mg/L
Isolate K2, Australia, OXA-181
  MBD S/NS: NS (NS = MIC >2 mg/L)
  MICBMD: 32 mg/L
Isolate K8, Australia, NDM-1
  MBD S/NS: NS (NS = MIC >2 mg/L)
  MICBMD: >256 mg/L
Isolate K14, Australia, KPC
  MBD S/NS: NS (NS = MIC >2 mg/L)
  MICBMD: >256 mg/L
[12]
  MBD S/NS: NS (NS = MIC >2 mg/L)
  MICBMD: 16 mg/L
[13]
  MBD S/NS: S (S = MIC ≤2 mg/L)
  MICBMD: 2 mg/L
[14]
  MBD S/NS: NS (NS = MIC >2 mg/L)
  MICBMD: 4 mg/L
Isolate KS2, Sri Lanka, OXA-181
  MBD S/NS: NS (NS = MIC >2 mg/L)
[15]
  MBD S/NS: NS (NS = MIC >2 mg/L)
  MICBMD: 64 mg/L
Isolate KS23, Sri Lanka, OXA-181
  MBD S/NS: NS (NS = MIC >2 mg/L)
Isolate N17, Sweden, NDM-1
  MBD S/NS: NS (NS = MIC >2 mg/L)
  MICBMD: 32 mg/L
